Among the data in US12552753B2, “Methods and compositions for targeting Tregs using CCR8 inhibitors” (Nanjing Immunophage Biomedical Co., Ltd., priority 2020, dated 2026) are IC50 values, retold here.

Counter-ions that a name gives are not always drawn. Bounds are passed on as bounds.

In the assay the target is CCR8 (Homo sapiens, UniProt P51685). The assay can be described thus: Tango assay (Tango-CCR8-Gal4-CHO-K1 cells, CCL1-stimulated, ONE-Glo luminescence). The following applies: Tango Assay IC50, Inhibition of CCR8 Tango cell in vitro.
Sequence of CCR8 (P51685 whole entry, the tested form may be a part): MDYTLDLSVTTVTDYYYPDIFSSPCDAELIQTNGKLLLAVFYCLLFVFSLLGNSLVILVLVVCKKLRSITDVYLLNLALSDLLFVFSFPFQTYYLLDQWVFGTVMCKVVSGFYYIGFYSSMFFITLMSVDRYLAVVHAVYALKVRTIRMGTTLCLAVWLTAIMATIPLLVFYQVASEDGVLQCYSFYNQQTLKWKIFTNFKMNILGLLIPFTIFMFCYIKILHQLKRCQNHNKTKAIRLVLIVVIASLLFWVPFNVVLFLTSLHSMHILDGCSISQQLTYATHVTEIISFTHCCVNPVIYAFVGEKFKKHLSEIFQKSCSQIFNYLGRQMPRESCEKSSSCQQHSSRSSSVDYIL
As to `Cc1cc(S(=O)(=O)N[C@H](C)C2CCN(C(=O)OC(C)(C)C)CC2)ccc1NC(=O)c1ccccc1C` [Compound 160, (R)-tert-butyl 4-(1-(3-methyl-4-(2-methylbenzamido)phen-ylsulfonamido)ethyl)piper-idine-1-carboxylate], the IC50 was above 10000 nM.
For the molecule `Cc1cc(S(=O)(=O)N[C@H](C)C2CCNCC2)ccc1NC(=O)c1ccccc1C` [Compound 161A, (R)-2-methyl-N-(2-methyl-4-(N-(1-(piperidin-4-yl)ethyl)sulfamoyl)phen-yl)benzamide hydrochloride], the IC50 was 42 nM. In other words, the double-digit nanomolar range.
`Cc1cc(S(=O)(=O)NC(C)C2CC3CCC2CC3)ccc1NC(=O)c1ccccc1C` (stereo not drawn) [Compound 162, N-(4-(N-(1-(bicyclo[2.2.2]octan-2-yl)ethyl)sulfamoyl)-2-methylphenyl)-2-methylbenzamide]: half-maximal inhibition (IC50) was put at 5 nM.
In turn, `Cc1ccccc1C(=O)Nc1ccc(S(=O)(=O)NC(C)C2CC3CCC2CC3)c(C)c1` (stereo not drawn) [Compound 163, N-(4-(N-(1-(bicyclo[2.2.2]octan-2-yl)ethyl)sulfamoyl)-3-methylphenyl)-2-methylbenzamide] yielded an IC50 of 86 nM.
In the case of `Cc1ccccc1C(=O)Nc1ccc(S(=O)(=O)N[C@H](C)C2CCN(C(=O)OC(C)(C)C)CC2)cc1Cl` [Compound 164, (R)-tert-butyl 4-(1-(3-chloro-4-(2-methylbenzamido)phen-ylsulfonamido)ethyl)piper-idine-1-carboxylate], the IC50 is above 10000 nM.
`Cc1ccccc1C(=O)Nc1ccc(S(=O)(=O)N[C@H](C)C2CCNCC2)cc1Cl` [Compound 165A, (R)-N-(2-chloro-4-(N-(1-(piperidin-4-yl)ethyl)sulfamoyl)phen-yl)-2-methylbenzamide hydrochloride]: the IC50 was found to be 12 nM.
As for `Cc1cc(S(=O)(=O)N[C@H](C)C2CCNCC2)ccc1NC(=O)c1ccccc1` [Compound 166A, (R)-N-(2-methyl-4-(N-(1-(piperidin-4-yl)ethyl)sulfamoyl)phen-yl)benzamide hydrochloride], half-maximal inhibition (IC50) required 99 nM.
On to `Cc1cc(S(=O)(=O)NC(C)C2CCNCC2)ccc1NC(=O)c1ccccc1C` (stereo not drawn) [Compound 167A, 2-methyl-N-(2-methyl-4-(N-(1-(piperidin-4-yl)ethyl)sulfamoyl)phen-yl)benzamide hydrochloride], for which the 50% inhibitory concentration (IC50) turned out to be 46 nM. This IC50 is about 2.2-fold lower than that of the molecule before.
`Cc1cc(S(=O)(=O)N[C@H](C)C2CCN(C(=O)OC(C)(C)C)CC2)c(Cl)cc1NC(=O)c1ccccc1C` [Compound 168, (R)-tert-butyl 4-(1-(2-chloro-5-methyl-4-(2-methylbenzamido)phen-ylsulfonamido)ethyl)pi-peridine-1-carboxylate] returned an IC50 of 1300 nM.
For `Cc1cc(S(=O)(=O)N[C@H](C)C2CCNCC2)c(Cl)cc1NC(=O)c1ccccc1C` [Compound 169A, (R)-N-(5-chloro-2-methyl-4-(N-(1-(piperidin-4-yl)ethyl)sulfamoyl)phen-yl)-2-methylbenzamide hydrochloride] the value was 12 nM; for `Cc1cc(S(=O)(=O)NC(C)C2CC3CCC2CC3)c(C)cc1NC(=O)c1ccccc1C` (stereo not drawn) [Compound 170, N-(4-(N-(1-(bicyclo[2.2.2]octan-2-yl)ethyl)sulfamoyl)-2,5-dimethylphenyl)-2-methylbenzamide], 3.7 nM; for `Cc1cc(S(=O)(=O)N[C@H](C)C2CCNCC2)c(C)cc1NC(=O)c1ccccc1C` [Compound 171A, (R)-N-(2,5-dimethyl-4-(N-(1-(piperidin-4-yl)ethyl)sulfamoyl)phen-yl)-2-methylbenzamide hydrochloride], 19 nM.
Then `CC(=O)Nc1cc(C)c(S(=O)(=O)N[C@H](C)C2CCNCC2)cc1C` [Compound 172A, (R)-N-(2,5-dimethyl-4-(N-(1-(piperidin-4-yl)ethyl)sulfamoyl)phen-yl)acetamide hydrochloride], with above 10000 nM; and `COc1cc(S(=O)(=O)NC(C)C2CC3CCC2CC3)c(C)cc1NC(=O)c1ccccc1C` (stereo not drawn) [Compound 173, N-(4-(N-(1-(bicyclo[2.2.2]octan-2-yl)ethyl)sulfamoyl)-2-methoxy-5-methylphenyl)-2-methylbenzamide], with 22 nM; and `Cc1cc(S(=O)(=O)N[C@H](C)C2CCN(C(=O)OC(C)(C)C)CC2)c(F)cc1NC(=O)c1ccccc1C` [Compound 174, (R)-tert-butyl 4-(1-(2-fluoro-5-methyl-4-(2-methylbenzamido)phen-ylsulfonamido)ethyl)pi-peridine-1-carboxylate], with 914 nM.
The molecule `Cc1cc(S(=O)(=O)N[C@H](C)C2CCNCC2)c(F)cc1NC(=O)c1ccccc1C` [Compound 175, (R)-N-(5-fluoro-2-methyl-4-(N-(1-(piperidin-4-yl)ethyl)sulfamoyl)phen-yl)-2-methylbenzamide] showed an IC50 of 26 nM.
Then `Cc1ccccc1C(=O)Nc1ccc(S(=O)(=O)N[C@H](C)C2CCN(C(=O)OC(C)(C)C)CC2)c(F)c1C` [Compound 176, (R)-tert-butyl 4-(1-(2-fluoro-3-methyl-4-(2-methylbenzamido)phen-ylsulfonamido)ethyl)pi-perridine-1-carboxylate], with 711 nM; and `Cc1ccccc1C(=O)Nc1ccc(S(=O)(=O)N[C@H](C)C2CCNCC2)c(F)c1C` [Compound 177A, (R)-N-(3-fluoro-2-methyl-4-(N-(1-(piperidin-4-yl)ethyl)sulfamoyl)phen-yl)-2-methylbenzamide, hydrochloride], with 46 nM; and `Cc1ccccc1C(=O)Nc1ccc(S(=O)(=O)N[C@H](C)C2CCN(C(=O)OC(C)(C)C)CC2)c(Cl)c1C` [Compound 178, (R)-tert-butyl 4-(1-(2-chloro-3-methyl-4-(2-methylbenzmido)phen-ylsulfonamido)ethyl)pi-perridine-1-carboxylate], with 378 nM.
For `Cc1ccccc1C(=O)Nc1ccc(S(=O)(=O)N[C@H](C)C2CCNCC2)c(Cl)c1C` [Compound 179A, (R)-N-(3-chloro-2-methyl-4-(N-(1-(piperidin-4-yl)eth-yl)sulfamoyl)phen-yl)-2-methylbenzamide, hydrochloride], the IC50 stood at 158 nM. This IC50 is about 2.4-fold lower than that of the molecule before.
`Cc1ccccc1C(=O)Nc1c(C)cc(S(=O)(=O)N[C@H](C)C2CCNCC2)cc1Cl` [Compound 180A, (R)-N-(2-chloro-6-methyl-4-(N-(1-(piperidin-4-yl)eth-yl)sulfamoyl)phen-yl)-2-methylbenzamide hydrochloride] returned an IC50 of 2 nM.
The molecule `Cc1cc(S(=O)(=O)N[C@H](C)C2CCNCC2)cc(C)c1NC(=O)c1ccccc1` [Compound 181, (R)-N-(2,6-dimethyl-4-(N-(1-(piperidin-4-yl)ethyl)sulfa-moyl)phenyl)benza-mide hydrochloride] yielded an IC50 above 10000 nM.
As to `Cc1ccccc1C(=O)Nc1ccc(S(=O)(=O)NC(C)C2CC3CCC2CC3)c(C)c1C` (stereo not drawn) [Compound 182, N-(4-(N-(1-(bicyclo[2.2.2]octan-2-yl)ethyl)sulfamoyl)-2,3-dimethylphenyl)-2-methylbenzamide], the midpoint of inhibition, the IC50, lay at 61 nM.
For the molecule `COc1cc(S(=O)(=O)NC(C)C2CC3CCC2CC3)c(OC)cc1NC(=O)c1ccccc1C` (stereo not drawn) [Compound 183, N-(4-(N-(1-(bicyclo[2.2.2]octan-2-yl)ethyl)sulfamoyl)-2,5-dimethoxyphenyl)-2-methylbenzamide], the IC50 is above 10000 nM.
As to `COc1cc(NC(=O)c2ccccc2C)c(C)cc1S(=O)(=O)NC(C)C1CC2CCC1CC2` (stereo not drawn) [Compound 184, N-(4-(N-(1-(bicyclo[2.2.2]octan-2-yl)ethyl)sulfamoyl)-5-methoxy-2-methylphenyl)-2-methylbenzamide], the midpoint of inhibition, the IC50, lay at 16 nM.
For `Cc1ccccc1C(=O)Nc1ccc(S(=O)(=O)N[C@H](C)C2CCN(C(=O)OC(C)(C)C)CC2)cc1C(F)(F)F` [Compound 185, (R)-tert-butyl 4-(1-(4-(2-methylbenzamido)-3-(trifluoromethyl)phenyl-sulfonamido)ethyl)piper-idine-1-carboxylate] the value was 673 nM; for `Cc1ccccc1C(=O)Nc1ccc(S(=O)(=O)N[C@H](C)C2CCNCC2)cc1C(F)(F)F` [Compound 186A, (R)-2-methyl-N-(4-(N-(1-(piperidin-4-yl)ethyl)sulfamoyl)-2-(trifluoromethyl)phenyl) benzamide hydrochloride], 182 nM; for `Cc1ccccc1C(=O)Nc1cc(C)c(S(=O)(=O)N[C@H](C)C2CCNCC2)cc1Cl` [Compound 187A, (R)-N-(2-chloro-5-methyl-4-(N-(1-(piperidin-4-yl)ethyl)sulfamoyl)phen-yl)-2-methylbenzamide hydrochloride], 6.3 nM.
Molecule `Cc1ccccc1C(=O)Nc1ccc(S(=O)(=O)N[C@H](C)C2CCN(C(=O)OC(C)(C)C)CC2)c(C(F)(F)F)c1` [Compound 188, (R)-tert-butyl 4-(1-(4-(2-methylbenzamido)-2-(trifluoromethyl)phenyl-sulfonamido)ethyl)piper-idine-1-carboxylate] had an IC50 of 302 nM.
The molecule `Cc1ccccc1C(=O)Nc1ccc(S(=O)(=O)N[C@H](C)C2CCNCC2)c(C(F)(F)F)c1` [Compound 189A, (R)-2-methyl-N-(4-(N-(1-(piperidin-4-yl)ethyl)sulfamoyl)-3-(trifluoromethyl)phenyl) benzamide hydrochloride] had an IC50 above 10000 nM.
The molecule `Cc1ccccc1C(=O)Nc1ccc(S(=O)(=O)N[C@H](C)C2CCNCC2)cc1F` [Compound 190A, (R)-N-(2-fluoro-4-(N-(1-(piperidin-4-yl)ethyl)sulfamoyl)phen-yl)-2-methylbenzmaide hydrochloride] had an IC50 of 58 nM.
As to `Cc1ccccc1C(=O)Nc1ccc(S(=O)(=O)N[C@H](C)C2CCN(C(=O)OC(C)(C)C)CC2)cc1Br` [Compound 191, (R)-tert-butyl 4-(1-(3-bromo-4-(2-methylbenzamido)phen-ylsulfonamido)ethyl)pi-peridine-1-carboxylate], the half-inhibitory concentration (IC50) was above 10000 nM.
Then `Cc1ccccc1C(=O)Nc1ccc(S(=O)(=O)N[C@H](C)C2CCNCC2)cc1Br` [Compound 192A, (R)-N-(2-bromo-4-(N-(1-(piperidin-4-yl)ethyl)sulfamoyl)phen-yl)-2-methylbenzamide hydrochloride], with 26 nM.

A word on the IC50: it is the concentration that gives 50% inhibition.
